The subject of this test is platelets, reticulocytes, hematocrit. The test is described as follows: CBC analysis and reticulocyte counts in HT-29 tumor-bearing mice (Groups 6-9). The class given is in vivo, athymic nude mice. The protocol: Five groups (n=10) of female athymic nude mice (Harlan) bearing established (˜100 mm^3) HT-29 human colon carcinomas on Day 1. Groups 6-9 (n=20) were included for blood sampling and received the same treatment as Groups 1-4, respectively. Treatment effects on the growth of tumors were evaluated by tumor growth delay (TGD), which is the difference between median time to endpoint (TTE) tumor size in a treatment group compared to a control group. […]
Group 1 mice (n=10) were untreated tumor growth controls. Group 2 mice (n=10) received 60 mg/kg carboplatin administered intraperitoneally (i.p.) on Days 1, 2, 12, and 13. Group 3 mice (n=10) received 0.2 mg/kg of the TPO mimetic peptide compound administered intravenously (i.v.) via tail vein on Days 2 and 13. Groups 4 and 5 received the combination of carboplatin (60 mg/kg i.p. on Days 1, 2, 12, and 13) and 0.2 mg/kg of the TPO mimetic peptide compound on Days 2, 13 and Days 2, 13, 23, respectively, administered intravenously (i.v.) one hour after carboplatin dosing. Groups 6-9 (n=20 each) were included for blood sampling and received the same treatments as Groups 1-4, respectively. For all groups, each dose of drug was given in a volume of 0.2 mL per 20 g of body weight (10 mL/kg), and was scaled to the body weight of each animal.
[…] Blood was collected into EDTA tubes, and complete blood counts (CBC) with differential were determined using a Cell-Dyn® 3700 System (Abbott Diagnostics) for automated hematology analyses. Reticulocyte values were determined. In addition, for Groups 1-5, five animals per group were euthanized at or just after endpoint by terminal cardiac puncture under CO2 anesthesia, and gross necropsies were performed. Blood samples were collected into EDTA tubes, and CBC with differential and reticulocyte values were performed as previously described. All other animals in Groups 1-5 were euthanized at endpoint without sampling.

Regarding “Methoxypolyethyleneglycol20000-propionyl-L-Isoleucyl-L-Glutamyl-Glycyl-L-Prolyl-L-Threonyl-L-Leucyl-L-Arginyl-L-Glutaminyl-L-2-Naphthylalanyl-L-Leucyl-L-Alanyl-L-Alanyl-L-Arginyl-Sarcosyl-Ne-(methoxypolyethyleneglycol20000-propionyl-L-Isoleucyl-L-Glutamyl-Glycyl-L-Prolyl-L-Threonyl-L-Leucyl-L-Arginyl-L-Glutaminyl-L-2-Naphthylalanyl-L-Leucyl-L-Alanyl-L-Alanyl-L-Arginyl-Sarcosyl-)-Lysinamide [TPO mimetic peptide compound]”, under “Group 8, all time points”, the “mean reticulocyte values compared to Group 6 controls” value was “slightly higher”. In addition, the “mean hematocrit (HCT) values compared to untreated mice (Group 6)” value (Groups 7-9) is “similar”. Further, the “mean platelet counts compared to untreated Group 6 controls” value (Groups 7-9, regimens as Groups 2-4, Days 10, 13, 21, and 23) is “higher mean platelet counts at all four time points”.

Source of the values: patent US20090311344A1, “Dosing Regimen” (priority 2008, published 2009).
